Legend:
Type in all cases: cell-based
[1] = tested on: fetal hemoglobin (HbF) in GCSF-mobilized human CD34+ cells; assay: HbF Induction Assay; conditions: 168 h; compound 1 μM, 7 days, erythroid-differentiated human CD34+ cells, flow cytometry; DMSO baseline 15% HbF positive cells
Method: The expansion, differentiation, and maturation of GCSF-mobilized human CD34^+ (STEMCELL Technologies Inc.) cells towards erythroid lineage cells were performed using a two-phase liquid culture model (Moutouh-de Parseval L A, el al. Pomalidomide and lenalidomide regulate erythropoiesis and fetal hemoglobin production in human CD34+ cells. J Clin Invest. 2008 January; 118(1):248-58). In the first phase, GCSF-mobilized human CD34^+ cells were cultured using StemSpan™-XF (STEMCELL Technologies Inc.) media supplemented with 1×BIT 9500, Penicillin-Streptomycin (50 U/mL), 100 ng/mL recombinant human (rh) SCF, 100 ng/mL rh Flt3-L, 20 ng/mL rh IL-3 and 10 ng/mL rh EPO and the growth of cells maintained in exponential phase for 7 days at 37° C. with 5% CO2 to support expansion and progenitor differentiation prior the second phase and treatment with compounds. In the second phase, culture media was changed to StemSpan™-XF media supplemented with 1×BIT 9500, Penicillin-Streptomycin (50 U/mL), 50 ng/mL rh SCF and 40 ng/mL rh EPO to promote further differentiation and maturation of the erythrocytes and to initiate treatment with compounds. Compounds were dispensed in duplicate at a final concentration of 1 μM in a final DMSO amount of 0.1%. Fresh compound was reapplied, and cell density was kept constant every 2 days. After 7 days, the cells were assessed for viability and fetal hemoglobin expression using flow cytometry. For viability analysis, eBioscience™ Fixable Viability Dye eFluor™ 780 (1:1000, eBioscience; Cat #65-0865-14) was added to the cells and kept in the dark for 10 minutes. For analysis of fetal hemoglobin (HbF), cells were fixed and permeabilized using Fixation Buffer (BioLegend; Cat #420801 and Intracellular staining permeabilization buffer (BioLegend, Cat #420201) following manufacturer's instructions. During permeabilization step, cells were stained with PE-labelled Mouse Anti-Human Fetal Hemoglobin (1:10, clone 2D12; BD Biosciences, Cat #BDB560041) incubated at room temperature for 20 minutes and protected from light. PE-labelled Mouse anti-IgG k, (1:10 clone MOPC-21; BD Biosciences, Cat# BDB551436) was used as an isotype control.
Viability, cell count, and fetal hemoglobin (HbF) levels were measured using an Attune NXT flow cytometer (Thermofisher) and the data analyzed using the FCS express software (De Novo Software). In Table 1 below, the effects of compounds of formula (I), formula (I′), formula (II), formula (II′), and formula (III) on % viable cells, viable cell count, on the % HbF positive cells and the median fluorescent intensity (MFI) of the HbF positive cell population compared to the DMSO controls can be viewed. All gates were set using the isotype negative control. The baseline % HbF positive cells for DMSO-treated control cells was 15%. Compounds of formula (I), formula (I′), formula (II), formula (II′), and formula (III) having HbF induction between 66% and 100% are level A. Compounds of formula (I), formula (I′), formula (II), formula (II′), and formula (III) having HbF induction between 33% and 66% are level B. Compounds of formula (I), formula (I′), formula (II), formula (II′), and formula (III) having HbF induction % less than 33% are level C. For certain compounds of formula (I), formula (I′), formula (II), formula (II′), and formula (III) % HbF induction values 0-33% (activity level C), between 33% and 66% (activity level B), and between 67% and 100% (activity level A) are shown in Table 2 below.

[2] = target: WIZ (Widely interspaced zinc finger) (Homo sapiens (Human), UniProt O95785+Q96SW2); assay: HUDEP-2 WIZ HiBiT degradation assay; conditions: HUDEP-2 WIZ HiBiT cells, 24 hours treatment, luminescence; for DC50: read-out: WIZ EC50
Method: (§1) The HiBiT degradation assay for WIZ and ZBTB7A in HUDEP-2 cells was performed as described below. HUDEP-2 cells engineered to express a HiBiT tag in either the WIZ (Widely interspaced zinc finger) or ZBTB7A (Zinc Finger And BTB Domain Containing 7A) proteins were maintained in low attachment flasks in StemSpan SFEM II media supplemented with Penicillin-Streptomycin (50 U/mL), rhSCF (50 ng/mL), rhEPO (3 IU/mL), dexamethasone (0.4 μg/mL) and doxycycline (1 μg/mL). Prior to start of the assay, cell count and viability were measured by trypan blue exclusion using the Vi-cell XR cell viability analyzer. For the HUDEP-2 WIZ HiBiT assay, cells were transferred to a 50 mL conical and centrifuged at 500 g for five minutes. Cells were resuspended in fresh StemSpan SFEM II media supplemented with Penicillin-Streptomycin (50 U/mL), rhSCF (50 ng/mL), rhEPO (3 IU/mL), dexamethasone (0.4 μg/mL) and doxycycline (1 μg/mL) at a density of 1.0×10^6 cells/ml. Forty microliters of cell suspension was dispensed into 384-well Low Flange White Flat Bottom Polystyrene TC-treated Microplates containing pre-dispensed compounds, using a VIAFLO 384 liquid hander, and placed in a 37° C. incubator with 5% CO2. […] After 24 hours of treatment, 40 μL Nano-Glo HiBiT Lytic Detection System reagent was dispensed into each well using a VIAFLO 384 liquid hander. Plates were incubated for 25 minutes at room temperature and the luminescence was read as relative luminescent units using the EnVision plate reader. EC50 and Y-min values were calculated using curves calculated from dotmatics software after the normalization to the DMSO control of 10 different concentrations: 10, 3.33, 1.11, 0.37, 0.12, 0.04 0.0137, 0.0046, 0.0015 and 0.0005 μM respectively.

[3] = target: ZBTB7A (Zinc Finger And BTB Domain Containing 7A) (Homo sapiens (Human), UniProt O95365+Q96SW2); assay: HUDEP-2 ZBTB7A HiBiT degradation assay; conditions: HUDEP-2 ZBTB7A HiBiT cells, 24 hours treatment, luminescence; for DC50: read-out: ZBTB7A EC50
Method: as §1
For the HUDEP-2 ZBTB7A HiBiT assay, cell count and viability were measured by trypan blue exclusion using the Vi-cell XR cell viability analyzer and the cells were transferred to a 50 mL conical and centrifuged at 500 g for five minutes. Cells were resuspended in fresh IMDM media supplemented with L-Glutamine (1×), Penicillin-Streptomycin (50 U/mL), holo-transferrin (330 μg/mL), heparin (2 IU/mL), r-human Insulin (10 μg/mL), rhEPO (3 IU/mL), rhSCF (100 ng/mL)+Dox (1 μg/mL) and 5% human plasma in low attachment flasks, which were placed in a 37° C. incubator with 5% CO2. After 48 hours, cell count and viability were measured by trypan blue exclusion using the Vi-cell XR cell viability analyzer. The HUDEP-2 ZBTB7A cells were transferred to a 50 mL conical, centrifuged at 500 g for five minutes and resuspended at a density of 1.0×10^6 cells/ml in IMDM media supplemented with L-Glutamine (1×), Penicillin-Streptomycin (50 U/mL), holo-transferrin (330 μg/mL), heparin (2 IU/mL), r-human Insulin (10 μg/mL), rhEPO (3 IU/mL), rhSCF (100 ng/mL)+Dox (1 μg/mL) and 5% human plasma. Forty microliters of cell suspension was dispensed into 384-well Low Flange White Flat Bottom Polystyrene TC-treated Microplates containing pre-dispensed compounds, using a VIAFLO 384 liquid hander, and placed in a 37° C. incubator with 5% CO2. […] After 24 hours of treatment, 40 μL Nano-Glo HiBiT Lytic Detection System reagent was dispensed into each well using a VIAFLO 384 liquid hander. Plates were incubated for 25 minutes at room temperature and the luminescence was read as relative luminescent units using the EnVision plate reader. EC50 and Y-min values were calculated using curves calculated from dotmatics software after the normalization to the DMSO control of 10 different concentrations: 10, 3.33, 1.11, 0.37, 0.12, 0.04 0.0137, 0.0046, 0.0015 and 0.0005 μM respectively.

Sequence of ZBTB7A (Zinc Finger And BTB Domain Containing 7A) (O95365 whole entry, the tested form may be a part): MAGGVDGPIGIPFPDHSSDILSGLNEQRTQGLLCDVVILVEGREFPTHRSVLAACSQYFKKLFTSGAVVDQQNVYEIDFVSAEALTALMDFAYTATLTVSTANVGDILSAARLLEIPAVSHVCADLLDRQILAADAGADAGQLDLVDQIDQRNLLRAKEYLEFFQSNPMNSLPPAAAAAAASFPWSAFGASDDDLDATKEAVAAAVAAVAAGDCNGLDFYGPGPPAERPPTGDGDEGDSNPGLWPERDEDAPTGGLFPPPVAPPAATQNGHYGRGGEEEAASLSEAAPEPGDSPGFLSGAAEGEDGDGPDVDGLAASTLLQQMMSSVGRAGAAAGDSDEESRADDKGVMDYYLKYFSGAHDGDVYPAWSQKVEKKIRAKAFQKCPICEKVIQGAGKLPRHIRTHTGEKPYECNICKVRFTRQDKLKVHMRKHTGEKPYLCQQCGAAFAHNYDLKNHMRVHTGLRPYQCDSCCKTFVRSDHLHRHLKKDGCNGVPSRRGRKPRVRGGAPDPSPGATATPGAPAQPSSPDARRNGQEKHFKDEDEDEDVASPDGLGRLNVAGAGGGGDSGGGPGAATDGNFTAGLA
Sequence of ZBTB7A (Zinc Finger And BTB Domain Containing 7A) (Q96SW2 whole entry, the tested form may be a part): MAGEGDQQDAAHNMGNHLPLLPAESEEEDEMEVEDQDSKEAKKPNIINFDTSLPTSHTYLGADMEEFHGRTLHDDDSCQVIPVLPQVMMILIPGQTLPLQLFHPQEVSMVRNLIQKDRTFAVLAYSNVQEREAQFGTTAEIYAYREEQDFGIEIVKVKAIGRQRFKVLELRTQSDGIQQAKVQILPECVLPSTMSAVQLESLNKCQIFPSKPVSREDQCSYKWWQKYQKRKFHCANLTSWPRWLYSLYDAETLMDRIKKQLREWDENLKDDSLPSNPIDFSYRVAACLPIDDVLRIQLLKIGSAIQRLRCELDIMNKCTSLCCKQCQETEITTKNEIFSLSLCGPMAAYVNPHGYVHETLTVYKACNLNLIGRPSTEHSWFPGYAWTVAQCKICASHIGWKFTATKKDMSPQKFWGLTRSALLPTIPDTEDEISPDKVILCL
Sequence of ZBTB7A (Zinc Finger And BTB Domain Containing 7A) (Q16531 whole entry partner, the tested form may be a part): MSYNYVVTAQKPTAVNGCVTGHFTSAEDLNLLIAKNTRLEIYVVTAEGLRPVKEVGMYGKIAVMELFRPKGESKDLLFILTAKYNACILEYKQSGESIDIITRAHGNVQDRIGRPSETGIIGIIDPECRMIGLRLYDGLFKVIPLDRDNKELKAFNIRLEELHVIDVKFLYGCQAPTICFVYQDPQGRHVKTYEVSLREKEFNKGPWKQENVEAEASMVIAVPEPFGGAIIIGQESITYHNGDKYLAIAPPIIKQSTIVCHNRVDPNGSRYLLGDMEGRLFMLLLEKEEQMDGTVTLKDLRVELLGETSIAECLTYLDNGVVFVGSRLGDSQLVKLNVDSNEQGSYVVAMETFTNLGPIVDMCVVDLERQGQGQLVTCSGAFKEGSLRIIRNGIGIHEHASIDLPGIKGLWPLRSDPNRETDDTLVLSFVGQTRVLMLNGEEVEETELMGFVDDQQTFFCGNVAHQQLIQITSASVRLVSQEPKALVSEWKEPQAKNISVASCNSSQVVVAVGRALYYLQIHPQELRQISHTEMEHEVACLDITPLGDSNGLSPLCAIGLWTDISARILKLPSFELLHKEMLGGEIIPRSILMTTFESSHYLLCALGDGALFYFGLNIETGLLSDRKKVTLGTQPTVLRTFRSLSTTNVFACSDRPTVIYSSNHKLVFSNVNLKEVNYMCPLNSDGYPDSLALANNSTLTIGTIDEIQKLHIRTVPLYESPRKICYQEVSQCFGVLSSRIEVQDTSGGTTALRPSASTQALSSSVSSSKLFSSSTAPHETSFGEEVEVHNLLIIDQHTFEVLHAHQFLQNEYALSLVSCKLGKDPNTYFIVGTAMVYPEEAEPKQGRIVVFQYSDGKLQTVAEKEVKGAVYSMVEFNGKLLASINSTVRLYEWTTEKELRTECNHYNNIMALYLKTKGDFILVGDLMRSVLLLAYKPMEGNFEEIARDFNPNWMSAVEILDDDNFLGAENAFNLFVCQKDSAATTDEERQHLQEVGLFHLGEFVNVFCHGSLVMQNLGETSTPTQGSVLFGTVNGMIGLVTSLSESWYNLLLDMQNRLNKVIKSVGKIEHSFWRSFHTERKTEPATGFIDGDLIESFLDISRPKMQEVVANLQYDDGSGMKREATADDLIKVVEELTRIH
Sequence of WIZ (Widely interspaced zinc finger) (O95785 whole entry, the tested form may be a part): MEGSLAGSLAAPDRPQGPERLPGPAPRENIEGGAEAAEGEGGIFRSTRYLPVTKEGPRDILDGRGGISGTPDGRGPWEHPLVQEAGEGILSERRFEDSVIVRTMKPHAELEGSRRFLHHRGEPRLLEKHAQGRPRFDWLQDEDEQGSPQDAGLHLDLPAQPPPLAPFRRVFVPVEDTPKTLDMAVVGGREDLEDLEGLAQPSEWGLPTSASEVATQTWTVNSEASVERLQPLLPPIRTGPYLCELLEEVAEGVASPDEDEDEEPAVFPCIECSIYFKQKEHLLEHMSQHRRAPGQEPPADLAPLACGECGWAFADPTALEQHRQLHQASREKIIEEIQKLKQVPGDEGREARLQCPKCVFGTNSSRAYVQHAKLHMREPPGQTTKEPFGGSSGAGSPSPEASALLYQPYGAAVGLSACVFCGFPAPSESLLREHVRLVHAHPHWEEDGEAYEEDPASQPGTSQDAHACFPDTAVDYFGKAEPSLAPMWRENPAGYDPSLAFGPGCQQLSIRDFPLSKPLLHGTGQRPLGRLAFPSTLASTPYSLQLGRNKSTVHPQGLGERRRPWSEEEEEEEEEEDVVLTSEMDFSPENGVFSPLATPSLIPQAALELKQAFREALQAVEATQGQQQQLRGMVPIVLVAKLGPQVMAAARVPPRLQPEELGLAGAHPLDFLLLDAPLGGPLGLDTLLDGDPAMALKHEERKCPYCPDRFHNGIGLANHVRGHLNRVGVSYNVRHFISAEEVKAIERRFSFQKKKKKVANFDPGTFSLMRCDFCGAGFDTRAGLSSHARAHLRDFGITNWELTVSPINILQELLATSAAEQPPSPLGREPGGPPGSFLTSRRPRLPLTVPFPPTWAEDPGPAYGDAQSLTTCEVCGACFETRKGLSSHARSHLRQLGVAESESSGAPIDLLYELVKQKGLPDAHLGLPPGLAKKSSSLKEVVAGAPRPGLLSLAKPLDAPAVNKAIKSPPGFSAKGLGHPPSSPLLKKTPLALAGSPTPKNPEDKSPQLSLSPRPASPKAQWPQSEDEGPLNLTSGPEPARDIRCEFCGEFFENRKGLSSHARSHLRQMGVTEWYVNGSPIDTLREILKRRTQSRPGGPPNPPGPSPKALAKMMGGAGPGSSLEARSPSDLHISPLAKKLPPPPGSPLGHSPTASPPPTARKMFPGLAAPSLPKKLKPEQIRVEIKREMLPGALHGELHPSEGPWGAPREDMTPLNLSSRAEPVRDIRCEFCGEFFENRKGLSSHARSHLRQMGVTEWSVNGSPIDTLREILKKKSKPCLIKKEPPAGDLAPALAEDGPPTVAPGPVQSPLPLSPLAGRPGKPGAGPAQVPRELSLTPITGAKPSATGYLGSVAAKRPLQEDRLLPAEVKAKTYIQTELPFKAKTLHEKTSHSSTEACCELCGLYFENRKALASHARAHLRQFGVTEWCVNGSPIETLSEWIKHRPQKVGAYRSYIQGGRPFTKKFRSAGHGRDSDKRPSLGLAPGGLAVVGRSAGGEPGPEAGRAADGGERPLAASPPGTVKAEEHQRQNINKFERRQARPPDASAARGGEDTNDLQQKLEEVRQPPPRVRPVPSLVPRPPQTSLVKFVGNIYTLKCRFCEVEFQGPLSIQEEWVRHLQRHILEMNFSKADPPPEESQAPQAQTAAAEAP
Sequence of WIZ (Widely interspaced zinc finger) (Q96SW2 whole entry, the tested form may be a part): as the sequence (Q96SW2 whole entry, the tested form may be a part) above
Sequence of WIZ (Widely interspaced zinc finger) (Q16531 whole entry partner, the tested form may be a part): as the sequence (Q16531 whole entry partner, the tested form may be a part) above

**Q.** For `Cc1cc(-c2cc3ncn(C4CC4)c3cc2Nc2cccc3c2C(=O)N(C2CCC(=O)NC2=O)C3=O)ccn1` (stereo not drawn) [Compound 2, 4-((1-cyclopropyl-5-(2-methylpyridin-4-yl)-1H-benzo[d]imidazol-6-yl)amino)-2-(2,6-dioxopiperidin-3-yl)isoindoline-1,3-dione], which activation at 1 µM [1] is on record?
**A.** 66 to 100%

**Q.** What about the DC50 [2] of the same compound?
**A.** < 10 nM

**Q.** And the DC50 [3]?
**A.** < 30 nM

**Q.** Which results are given for `Cc1cc(-c2cc3c(cc2Nc2cccc4c2C(=O)N(C2CCC(=O)NC2=O)C4=O)c(C)nn3C)ccn1` (stereo not drawn) [Compound 3, 4-((1,3-dimethyl-6-(2-methylpyridin-4-yl)-1H-indazol-5-yl)amino)-2-(2,6-dioxopiperidin-3-yl)isoindoline-1,3-dione]?
**A.** activation at 1 µM [1]: 66 to 100%; DC50 [2]: 10 to 100 nM; EC50 [3]: < 30 nM

**Q.** With `Cc1cc(-c2cc3c(cnn3C3CCOCC3)cc2Nc2cccc3c2C(=O)N(C2CCC(=O)NC2=O)C3=O)ccn1` (stereo not drawn) [Compound 4, 2-(2,6-dioxopiperidin-3-yl)-4-((6-(2-methylpyridin-4-yl)-1-(tetrahydro-2H-pyran-4-yl)-1H-indazol-5-yl)amino)isoindoline-1,3-dione] as the compound, how does the activation at 1 µM [1] read?
**A.** 66 to 100%

**Q.** And the DC50 [2]?
**A.** 10 to 100 nM

**Q.** What about the DC50 [3] of the same compound?
**A.** 30 to 100 nM

**Q.** What does the source list for `COc1ccc(-c2cc3ncn(C)c3cc2Nc2cccc3c2C(=O)N(C2CCC(=O)NC2=O)C3=O)cc1F` (stereo not drawn) [Compound 5, 2-(2,6-dioxopiperidin-3-yl)-4-((5-(3-fluoro-4-methoxyphenyl)-1-methyl-1H-benzo[d]imidazol-6-yl)amino)isoindoline-1,3-dione]?
**A.** activation at 1 µM [1]: 66 to 100%; DC50 [2]: 10 to 100 nM; DC50 [3]: 30 to 100 nM

**Q.** With `Cc1cccc(F)c1Oc1ccc2c(cnn2C)c1Nc1cccc2c1C(=O)N(C1CCC(=O)NC1=O)C2=O` (stereo not drawn) [Compound 6, 2-(2,6-dioxopiperidin-3-yl)-4-((5-(2-fluoro-6-methylphenoxy)-1-methyl-1H-indazol-4-yl)amino)isoindoline-1,3-dione] as the compound, how does the activation at 1 µM [1] read?
**A.** 66 to 100%

**Q.** And the EC50 [2]?
**A.** < 10 nM

**Q.** And the DC50 [3]?
**A.** 30 to 100 nM

**Q.** `Cc1cc(-c2cc3cnn(C)c3cc2Nc2cccc3c2C(=O)N(C2CCC(=O)NC2=O)C3=O)ccn1` (stereo not drawn) [Compound 7, 2-(2,6-dioxopiperidin-3-yl)-4-((1-methyl-5-(2-methylpyridin-4-yl)-1H-indazol-6-yl)amino)isoindoline-1,3-dione] was tested. Which activation at 1 µM [1] did it give?
**A.** 66 to 100%

**Q.** What about the DC50 [2] of the same compound?
**A.** 10 to 100 nM

**Q.** What about the DC50 [3] of the same compound?
**A.** 30 to 100 nM

**Q.** With `Cc1cc(-c2cc3onc(C)c3cc2Nc2cccc3c2C(=O)N(C2CCC(=O)NC2=O)C3=O)ccn1` (stereo not drawn) [Compound 8, 2-(2,6-dioxopiperidin-3-yl)-4-((3-methyl-6-(2-methylpyridin-4-yl)benzo[d]isoxazol-5-yl)amino)isoindoline-1,3-dione] as the compound, how does the activation at 1 µM [1] read?
**A.** 66 to 100%

**Q.** And the DC50 [2]?
**A.** 10 to 100 nM

**Q.** And the DC50 [3]?
**A.** 30 to 100 nM

**Q.** For `CN(C)CCOc1cc(Oc2ccccc2)c(Nc2cccc3c2C(=O)N(C2CCC(=O)NC2=O)C3=O)cn1` (stereo not drawn) [Compound 9, 4-((6-(2-(dimethylamino)ethoxy)-4-phenoxypyridin-3-yl)amino)-2-(2,6-dioxopiperidin-3-yl)isoindoline-1,3-dione], which activation at 1 µM [1] is on record?
**A.** 66 to 100%

**Q.** What about the EC50 [2] of the same compound?
**A.** < 10 nM

**Q.** What about the DC50 [3] of the same compound?
**A.** 30 to 100 nM

**Q.** With `O=C1CCC(N2C(=O)c3cccc(Nc4cc5cnn(C6CCOCC6)c5cc4C4CC4)c3C2=O)C(=O)N1` (stereo not drawn) [Compound 10, 4-((6-cyclopropyl-1-(tetrahydro-2H-pyran-4-yl)-1H-indazol-5-yl)amino)-2-(2,6-dioxopiperidin-3-yl)isoindoline-1,3-dione] as the compound, how does the activation at 1 µM [1] read?
**A.** 66 to 100%

**Q.** And the EC50 [2]?
**A.** < 10 nM

**Q.** What about the EC50 [3] of the same compound?
**A.** > 100 nM

**Q.** With `O=C1CCC(N2C(=O)c3cccc(Nc4cc5cnn(C6CCOCC6)c5cc4-c4ccnc(C(F)F)c4)c3C2=O)C(=O)N1` (stereo not drawn) [Compound 11, 4-((6-(2-(difluoromethyl)pyridin-4-yl)-1-(tetrahydro-2H-pyran-4-yl)-1H-indazol-5-yl)amino)-2-(2,6-dioxopiperidin-3-yl)isoindoline-1,3-dione] as the compound, how does the activation at 1 µM [1] read?
**A.** 66 to 100%

**Q.** What about the DC50 [2] of the same compound?
**A.** > 100 nM

**Q.** What about the EC50 [3] of the same compound?
**A.** > 100 nM

**Q.** Which results are given for `COc1cc(OCCN2CCCCC2)ccc1Nc1cccc2c1C(=O)N(C1CCC(=O)NC1=O)C2=O` (stereo not drawn) [Compound 12, 2-(2,6-dioxopiperidin-3-yl)-4-((2-methoxy-4-(2-(piperidin-1-yl)ethoxy)phenyl)amino)isoindoline-1,3-dione]?
**A.** activation at 1 µM [1]: 66 to 100%; EC50 [2]: < 10 nM; DC50 [3]: 30 to 100 nM

**Q.** For `O=C1CCC(N2C(=O)c3cccc(Nc4c(Oc5ccccc5Cl)ccc5c4cnn5C4CCOCC4)c3C2=O)C(=O)N1` (stereo not drawn) [Compound 13, 4-((5-(2-chlorophenoxy)-1-(tetrahydro-2H-pyran-4-yl)-1H-indazol-4-yl)amino)-2-(2,6-dioxopiperidin-3-yl)isoindoline-1,3-dione], which activation at 1 µM [1] is on record?
**A.** 66 to 100%

**Q.** What about the DC50 [2] of the same compound?
**A.** 10 to 100 nM

**Q.** What about the DC50 [3] of the same compound?
**A.** 30 to 100 nM

From US20240208937A1, “Compounds and Their Use for Treatment of Hemoglobinopathies” (Bristol-Myers Squibb Company, priority 2022, published 2024)
